Test results: patent publication US4444759A, “GnRH Antagonists II” (The Salk Institute for Biological Studies, priority 1982, dated 1984)
Square brackets hold non-standard residues; d marks the D form. Peptide text beside a SMILES is read from it. dPhe(4-NO2) = N[C@H](Cc1ccc([N+](=O)[O-])cc1)C(=O)O; dPhe(4-NH2) = Nc1ccc(C[C@@H](N)C(=O)O)cc1; dPhe(4-Br) = N[C@H](Cc1ccc(Br)cc1)C(=O)O; dPhe(4-Cl) = N[C@H](Cc1ccc(Cl)cc1)C(=O)O; dPhe(4-F) = N[C@H](Cc1ccc(F)cc1)C(=O)O; d2Nal = N[C@H](Cc1ccc2ccccc2c1)C(=O)O

Test system: LH released by 3 nanomolar GnRH in dissociated rat pituitary cells
Assay type: cell-based
Description: The peptide is assayed in vitro and in vivo. The in vitro test is made using dissociated rat pituitary cells maintained in culture for 4 days prior to the assay. The levels of LH mediated in response to the application of peptides is assayed by specific radioimmunoassay for rat LH. Control dishes of cells only receive a measure which is 3 nanomolar in GnRH; experimental dishes receive a measure 3 nanomolar in GnRH plus a measure having either the present standard antagonist (for comparison purposes) i.e. [Ac-dehydro Pro^1, 4-F-D-Phe^2, D-Trp^3,6 ]-GnRH or the test peptide in concentrations ranging from 0.01 to 10 nanomolar. The amount of LH secreted in the samples treated only with GnRH is compared with that secreted by the samples treated with the peptide plus GnRH.
The ability of the test peptide to reduce the amount of LH released by 3 nanomolar GnRH is compared to that of the present standard peptide. The results are calculated using 3-5 doses of each of the peptides by the statistical program BIOPROG (provided by D. Rodbard NICHD) and are expressed as a potency relative to the present standard. The standard peptide usually blocks 50% of the LH released by GnRH at less than a ratio of 0.1 [antagonist]/1[GnRH].

Compound | in vitro Potency relative to [Ac-dehydro Pro1, 4-F-D-Phe2, D-Trp3,6]-GnRH | ratio [antagonist]/1[GnRH] that blocks 50% of the LH released by GnRH (3 nanomolar GnRH, usual value)
CC(=O)N[C@H](Cc1ccc2ccccc2c1)C(=O)N[C@H](Cc1ccc(F)cc1)C(=O)N[C@H](Cc1c[nH]c2ccccc12)C(=O)N[C@@H](CO)C(=O)N[C@@H](Cc1ccc(O)cc1)C(=O)N[C@H](Cc1ccc(N)cc1)C(=O)N[C@@H](CC(C)C)C(=O)N[C@@H](CCCNC(=N)N)C(=O)N1CCC[C@H]1C(=O)NCC(N)=O [Peptide 2] (Ac-[d2Nal][dPhe(4-F)][dW]SY[dPhe(4-NH2)]LRPG-NH2) | 1.4 | –
CC(=O)N[C@H](Cc1ccc2ccccc2c1)C(=O)N[C@H](Cc1ccc(Cl)cc1)C(=O)N[C@H](Cc1c[nH]c2ccccc12)C(=O)N[C@@H](CO)C(=O)N[C@@H](Cc1ccc(O)cc1)C(=O)N[C@H](CCCNC(=N)N)C(=O)N[C@@H](CC(C)C)C(=O)N[C@@H](CCCNC(=N)N)C(=O)N1CCC[C@H]1C(=O)NCC(N)=O [Peptide 3] (Ac-[d2Nal][dPhe(4-Cl)][dW]SY[dR]LRPG-NH2) | 0.56 | –
CC(=O)N[C@H](Cc1ccc2ccccc2c1)C(=O)N[C@H](Cc1ccc(F)cc1)C(=O)N[C@H](Cc1c[nH]c2ccccc12)C(=O)N[C@@H](CO)C(=O)N[C@@H](Cc1ccc(O)cc1)C(=O)N[C@H](CCCNC(=N)N)C(=O)N[C@@H](CC(C)C)C(=O)N[C@@H](CCCNC(=N)N)C(=O)N1CCC[C@H]1C(=O)N[C@H](C)C(N)=O [Peptide 7] (Ac-[d2Nal][dPhe(4-F)][dW]SY[dR]LRP[dA]-NH2) | 0.63 | –
CC(=O)N[C@H](Cc1ccc2ccccc2c1)C(=O)N[C@H](Cc1ccc(F)cc1)C(=O)N[C@H](Cc1c[nH]c2ccccc12)C(=O)N[C@@H](CO)C(=O)N[C@@H](Cc1ccc(O)cc1)C(=O)N[C@H](CCCNC(=N)N)C(=O)N[C@@H](CC(C)C)C(=O)N[C@@H](CCCNC(=N)N)C(=O)N1CCC[C@H]1C(=O)NCC(N)=O [Peptide 1, [Ac-β-D-2NAL^1,4-F-D-Phe^2,D-Trp^3, D-Arg^6]-GnRH] (Ac-[d2Nal][dPhe(4-F)][dW]SY[dR]LRPG-NH2) | 0.44 | –
CCNC(=O)[C@@H]1CCCN1C(=O)[C@H](CCCNC(=N)N)NC(=O)[C@H](CC(C)C)NC(=O)[C@@H](CCCNC(=N)N)NC(=O)[C@H](Cc1ccc(O)cc1)NC(=O)[C@H](CO)NC(=O)[C@@H](Cc1c[nH]c2ccccc12)NC(=O)[C@@H](Cc1ccc(Br)cc1)NC(=O)[C@@H](Cc1ccc2ccccc2c1)NC(C)=O [Peptide 6] (Ac-[d2Nal][dPhe(4-Br)][dW]SY[dR]LRP-NHEt) | 0.46 | –
CCNC(=O)[C@@H]1CCCN1C(=O)[C@H](CCCNC(=N)N)NC(=O)[C@H](CC(C)C)NC(=O)[C@@H](CCCNC(=N)N)NC(=O)[C@H](Cc1ccc(O)cc1)NC(=O)[C@H](CO)NC(=O)[C@@H](Cc1c[nH]c2ccccc12)NC(=O)[C@@H](Cc1ccc(Cl)cc1)NC(=O)[C@@H](Cc1ccc2ccccc2c1)NC(C)=O [Peptide 4] (Ac-[d2Nal][dPhe(4-Cl)][dW]SY[dR]LRP-NHEt) | 0.38 | –
CCNC(=O)[C@@H]1CCCN1C(=O)[C@H](CCCNC(=N)N)NC(=O)[C@H](CC(C)C)NC(=O)[C@@H](CCCNC(=N)N)NC(=O)[C@H](Cc1ccc(O)cc1)NC(=O)[C@H](CO)NC(=O)[C@@H](Cc1c[nH]c2ccccc12)NC(=O)[C@@H](Cc1ccc([N+](=O)[O-])cc1)NC(=O)[C@@H](Cc1ccc2ccccc2c1)NC(C)=O [Peptide 5] (Ac-[d2Nal][dPhe(4-NO2)][dW]SY[dR]LRP-NHEt) | 0.20 | –
[Ac-dehydro Pro^1, 4-F-D-Phe^2, D-Trp^3,6 ]-GnRH [standard peptide, reference compound] | – | < 0.1 [antagonist]/1[GnRH]
